From US20200354426A1 (MEDIMMUNE LIMITED, priority 2016, published 2020)
Numbered stars: 1 amine (or outer) side, 2 acyl side, 3 side chain; on linkers, the order of the positions; unused ones are H or OH. Side chains are listed from the residue outwards. Peptide text beside a SMILES is read from it. * marks the point of attachment. γGlu = O=C(O)[C@H](CCC(=O)[*:2])N[*:1]; Palmitoyl = CCCCCCCCCCCCCCCC(=O)*

How the values were obtained:
[1] = system: diet induced obesity (DIO) mouse model; assay: Diet induced obesity (DIO) mouse model, study B; format: in vivo; settings: for HOMA / BeHy / FGF21 / Hepatic TG / Plasma Cholesterol / Plasma TG: day 14
From the text: Female C57/B16JHsdOla (obtained from Harlan Laboratories. UK) were started on a high fat diet of D12492 (Research Diets, NJ, USA) and a chocolate confection, delicato ball (Delicata Bakverk, Sweden) at 9-11 weeks of age, and were maintained on the diet for 16 weeks prior to arrival to the animal facility, during a three week acclimation period and during drug treatment, caloric content of the two components of the diet is shown in Table 11. The mice were divided into 9 groups (n=5-6), and treatment was started at 29 weeks of age.
The body weight of the animals was monitored daily throughout the dosing period. At day 14, blood samples for the measurement of plasma glucose and insulin from conscious mice were obtained after a 4-hour fasting period. Mice were then anaesthetized using isoflourane and terminal blood was collected from the capillary bed behind the eye. The following parameters were measured: blood chemistry measurements of triglycerides, total cholesterol, non-esterified fatty acids (NEFA), beta-hydroxybutyrate and fibroblast growth factor 21 (FGF21) (Table 16 and Table 17 below).

healthy volunteers = assay: Phase 1 single-ascending-dose study of G933 (PK, PD, immunogenicity, safety); format: in vivo, human; settings: for Overall daily food intake compared with placebo: across breakfast, lunch and dinner; for Median glucose peak after breakfast: approximately 1 hour post breakfast, 3.5 hours post dose; for Median glucose peak after dinner: approximately 1 hour post dinner, […] post dose; for Median glucose peak after lunch: approximately 1 hour post lunch, 7 hours post dose
From the text: The subjects were screened for the following inclusion and exclusion criteria.
Inclusion Criteria: • Healthy volunteers, ages 18 through 45 years at the time of screening; • Body mass index ≥22 and ≤30 kg/m^2 and body weight ≥70 kg; and • Venous access suitable for multiple cannulations.
The period of exclusion to begin 30 days or 5 half-lives of investigational product after the final dose, or after the last visit, whichever is longest. Subjects consented and screened, but not randomized into this study or a previous study, are not excluded; or • Psychiatric illness such that subjects have been committed to an institution by way of official or judicial order
Eight subjects per cohort were planned.

Rat GLP1R = target: T1, Rat GLP1R (Rattus norvegicus, UniProt P32301); assay: cAMP assay in 3.2% rat serum albumin (assay 2); format: cell-based
T1 construct: expressed in transfected cells
T1 sequence (P32301 22-463): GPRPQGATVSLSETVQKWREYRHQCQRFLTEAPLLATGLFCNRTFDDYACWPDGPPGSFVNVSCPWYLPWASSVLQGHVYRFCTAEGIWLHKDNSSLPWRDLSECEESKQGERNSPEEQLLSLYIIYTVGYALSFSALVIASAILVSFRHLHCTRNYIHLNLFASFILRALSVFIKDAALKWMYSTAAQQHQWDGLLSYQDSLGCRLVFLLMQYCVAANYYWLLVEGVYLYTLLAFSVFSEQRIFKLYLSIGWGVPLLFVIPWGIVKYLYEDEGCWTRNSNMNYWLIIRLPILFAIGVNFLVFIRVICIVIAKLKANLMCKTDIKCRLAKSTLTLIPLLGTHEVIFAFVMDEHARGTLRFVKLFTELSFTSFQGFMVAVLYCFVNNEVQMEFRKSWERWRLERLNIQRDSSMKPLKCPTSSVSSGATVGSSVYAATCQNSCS
Protocol: Cryopreserved cell stocks were prepared in 1× cell freezing medium-DMSO serum free (Sigma Aldrich) at 2×10^7/vial and stored at −80° C. […] Peptides were serially diluted in DMSO and then diluted 100 fold into DMEM containing serum albumin at stated final concentration. […] Cells were added to the assay plates and incubated for 30 min at room temperature. Following incubation the assay was stopped and cAMP levels measured using the HTRF® dynamic d2 cAMP assay kit available from CisBio Bioassays, as per the manufacture's guidelines. Plates were read on Perkin Elmer ENVISION® fluorescence plate readers. Human and rat serum albumin were purchased from Sigma Aldrich and mouse serum albumin from Equitech Bio Ltd.
Data was transformed to % Delta F as described in manufacturer's guidelines and analysed by 4-parameter logistic fit to determine EC50 values. […] For instance. […] To compare the balance of activities at the GLP1R and GlucR between different peptides and across different conditions, these can be correlated using the calculation below, where the EC50's are related to those of the natural ligands.

Mouse GlucR = target: T2, Mouse GlucR (Mus musculus, UniProt Q61606); assay: cAMP assay in 3.2% mouse serum albumin (assay 2); format: cell-based; settings: relative potencies vs natural ligands
T2 construct: expressed in transfected cells
T2 sequence (Q61606 27-485): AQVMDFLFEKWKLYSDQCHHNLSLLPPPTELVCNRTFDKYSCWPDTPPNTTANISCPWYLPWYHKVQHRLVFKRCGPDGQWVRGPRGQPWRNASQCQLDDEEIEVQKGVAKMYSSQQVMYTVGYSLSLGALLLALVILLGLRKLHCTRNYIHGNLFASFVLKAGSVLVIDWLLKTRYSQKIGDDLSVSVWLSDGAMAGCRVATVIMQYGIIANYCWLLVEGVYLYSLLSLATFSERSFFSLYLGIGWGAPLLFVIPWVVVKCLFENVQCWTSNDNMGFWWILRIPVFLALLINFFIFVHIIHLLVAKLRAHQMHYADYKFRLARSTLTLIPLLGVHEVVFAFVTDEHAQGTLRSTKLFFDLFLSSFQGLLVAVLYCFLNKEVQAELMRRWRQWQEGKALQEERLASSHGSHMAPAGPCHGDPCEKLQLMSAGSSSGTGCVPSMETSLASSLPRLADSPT

[2] = Stability testing of peptides in plasma; format: in vitro ADME, rat
Protocol: The stability in plasma of the peptideS […], […], […] and […] was determined as follows. […] The spiked plasma samples were gently mixed and allowed to equilibrate for about 5 minutes before start of experiment. The plasma samples were incubated for 48 hours in a GalaxyR CO2 incubator at 37° C. […] The samples were stored at -70° C. until analysis. Plasma samples were assayed as follows. […] After mixing and centrifugation, 100 μl the supernatant was transferred to a new plate and 1 μl was injected onto an analytical column. The analysis was performed using a μLC-system ([…]) coupled to a medium high resolution mass spectrometer (Perkin Elmer PenTOF) with positive electrospray ionisation. […] Flow: 0.1 ml/min using a slow reversed phase gradient. […] Cleavage products arise from the action of the protease DPP IV in plasma. Both the degradation of the peptides and formation of peptide products were reported in percentage of the initial peptide concentration. Peaks were integrated and % remaining peptide was calculated: […] Levels of deamidation and DPP IV cleavage were low for […] and […].

L-Histidyl-L-seryl-L-glutaminylglycyl-L-threonyl-L-phenylalanyl-L-threonyl-L-seryl-L-alpha-aspartyl-(N6-[N-(1-oxohexadecyl)-L-gamma-gutamyl])L-lysy-L-sery-L-alpha-glutamyl-L-tyrosyl-L-leucyl-L-alpha-aspartyl-L-seryl-L-alpha-glutamyl-L-arginyl-L-alanyl-L-arginyl-L-alpha-L-aspartyl-L-phenylalanyl-L-valyl-L-alanyl-L-tryptophyl-L-leucyl-L-alpha-glutamyl-L-alanylglycylglycine [Peptide G933]
BW day 14 (% change of vehicle mean) ([1]; 5 nmol/kg sc twice daily 14 days): −11%
HOMA ([1]; 5 nmol/kg sc twice daily): 3.31
BW day 14 (% change of vehicle mean) ([1]; 10 nmol/kg sc twice daily 14 days): −19%
HOMA ([1]; 10 nmol/kg sc twice daily): 1.98
body weight over the 14 day dosing period ([1]; DIO mice, FIGS. 5-8): dose dependent and continuous weight loss
BeHy ([1]; dose in Table 17: 5 nmol/kg): 593.56 µmol/L
FGF21 ([1]; dose in Table 17: 5 nmol/kg): 4459 pg/mL
Hepatic TG ([1]; dose in Table 17: 5 nmol/kg): 14.7 g TB/100 g tissue
Plasma Cholesterol ([1]; dose in Table 17: 5 nmol/kg): 2.32 mM
Plasma TG ([1]; dose in Table 17: 5 nmol/kg): 0.16 mM
BeHy ([1]; dose in Table 17: 50 nmol/kg): 673.08 µmol/L
FGF21 ([1]; dose in Table 17: 50 nmol/kg): 2582 pg/mL
Hepatic TG ([1]; dose in Table 17: 50 nmol/kg): 13.3 g TB/100 g tissue
Plasma Cholesterol ([1]; dose in Table 17: 50 nmol/kg): 2.88 mM
Plasma TG ([1]; dose in Table 17: 50 nmol/kg): 0.39 mM
Overall daily food intake compared with placebo (healthy volunteers; Dose (µg) 5): 100%
Median glucose peak after breakfast (healthy volunteers; Dose (µg) 5): 6.2 mmol/L
Median glucose peak after dinner (healthy volunteers; Dose (µg) 5): 7.0 mmol/L
Median glucose peak after lunch (healthy volunteers; Dose (µg) 5): 4.9 mmol/L
Overall daily food intake compared with placebo (healthy volunteers; Dose (µg) 10): 100%
Median glucose peak after breakfast (healthy volunteers; Dose (µg) 10): 5.8 mmol/L
Median glucose peak after dinner (healthy volunteers; Dose (µg) 10): 6.0 mmol/L
Median glucose peak after lunch (healthy volunteers; Dose (µg) 10): 5.1 mmol/L
Overall daily food intake compared with placebo (healthy volunteers; Dose (µg) 30): 96%
Median glucose peak after breakfast (healthy volunteers; Dose (µg) 30): 5.4 mmol/L
Median glucose peak after dinner (healthy volunteers; Dose (µg) 30): 5.2 mmol/L
Median glucose peak after lunch (healthy volunteers; Dose (µg) 30): 4.4 mmol/L
Overall daily food intake compared with placebo (healthy volunteers; Dose (µg) 100): 82%
Median glucose peak after breakfast (healthy volunteers; Dose (µg) 100): 5.5 mmol/L
Median glucose peak after dinner (healthy volunteers; Dose (µg) 100): 5.2 mmol/L
Median glucose peak after lunch (healthy volunteers; Dose (µg) 100): 4.7 mmol/L
Overall daily food intake compared with placebo (healthy volunteers; Dose (µg) 150): 60%
Median glucose peak after breakfast (healthy volunteers; Dose (µg) 150): 5.1 mmol/L
Median glucose peak after dinner (healthy volunteers; Dose (µg) 150): 5.2 mmol/L
Median glucose peak after lunch (healthy volunteers; Dose (µg) 150): 5.1 mmol/L
Overall daily food intake compared with placebo (healthy volunteers; Dose (µg) 300): 23%
Median glucose peak after breakfast (healthy volunteers; Dose (µg) 300): 4.7 mmol/L
Median glucose peak after dinner (healthy volunteers; Dose (µg) 300): 4.9 mmol/L
Median glucose peak after lunch (healthy volunteers; Dose (µg) 300): 5.1 mmol/L
overall daily food intake (healthy volunteers; all single doses compared with placebo): reduction in overall daily food intake
plasma glucose levels (healthy volunteers; all single doses, 2.5-14 hours post-dose): glucose lowering effect

CCCCCCCCCCCCCCCC(=O)N[C@@H](CCC(=O)NCCCC[C@H](NC(=O)[C@H](CCCCN)NC(=O)[C@H](CO)NC(=O)[C@H](Cc1ccc(O)cc1)NC(=O)[C@H](CC(=O)O)NC(=O)[C@H](CO)NC(=O)[C@@H](NC(=O)[C@H](Cc1ccccc1)NC(=O)[C@@H](NC(=O)CNC(=O)[C@H](CCC(N)=O)NC(=O)[C@H](CO)NC(=O)[C@@H](N)Cc1c[nH]cn1)[C@@H](C)O)[C@@H](C)O)C(=O)N[C@@H](CC(C)C)C(=O)N[C@@H](CC(=O)O)C(=O)N[C@@H](CO)C(=O)N[C@@H](CCC(=O)O)C(=O)N[C@@H](CCCNC(=N)N)C(=O)N[C@@H](C)C(=O)N[C@@H](CCCNC(=N)N)C(=O)N[C@@H](CC(=O)O)C(=O)N[C@@H](Cc1ccccc1)C(=O)N[C@H](C(=O)N[C@@H](C)C(=O)N[C@@H](Cc1c[nH]c2ccccc12)C(=O)N[C@@H](CC(C)C)C(=O)N[C@H](C(=O)N[C@@H](C)C(=O)NCC(=O)NCC(N)=O)C(C)C)C(C)C)C(=O)O [Peptide G730] (H-HSQGTFTSDYSKK([γGlu-Palmitoyl])LDSERARDFVAWLVAGG-NH2; N-terminus assumed)
EC50 (Rat GLP1R): 0.081 nM
Mouse GlucR/GLP1R Ratio (Mouse GlucR): 0.04
% +1 prod [2]: 58%
% DPP cleaved product/+1 DPP cleaved product [2]: 2%
remaining at 24 h, 2 μmol/L ([2]; rat, plasma): 24%
